# Measurements: ChEMBL document CHEMBL2440045, “The synthesis and anticancer activity of analogs of the indole phytoalexins brassinin, 1-methoxyspirobrassinol methyl ether and cyclobrassinin” (Bioorg Med Chem, 2013)
# Tests used:
# [1] = test system: HeLa; assay: Antiproliferative activity against human HeLa cells assessed as cell viability after 72 hrs by MTT assay; format: functional, cell-based
# [2] = test system: A549; assay: Antiproliferative activity against human A549 cells assessed as cell viability after 72 hrs by MTT assay; format: functional, cell-based; conditions: A549, 72 h
# [3] = test system: MCF7; assay: Antiproliferative activity against human MCF7 cells assessed as cell viability after 72 hrs by MTT assay; format: functional, cell-based; conditions: MCF7, 72 h
# [4] = test system: Jurkat; assay: Antiproliferative activity against human Jurkat cells assessed as cell viability after 72 hrs by MTT assay; format: functional, cell-based
# [5] = test system: MDA-MB-231; assay: Antiproliferative activity against human MDA-MB-231 cells assessed as cell viability after 72 hrs by MTT assay; format: functional, cell-based; conditions: MDA-MB-231, 72 h
# [6] = test system: CCRF-CEM; assay: Antiproliferative activity against human CCRF-CEM cells assessed as cell viability after 72 hrs by MTT assay; format: functional, cell-based
# [7] = test system: HUVEC; assay: Cytotoxicity against HUVEC assessed as cell viability after 48 hrs by MTT assay; format: cell-based; conditions: Homo sapiens
# [8] = test system: MCF7; assay: Selectivity index, ratio of IC50 for HUVEC to IC50 for human MCF7 cells
Compound,IC50 [1] [µM],IC50 [2] [µM],IC50 [3] [µM],IC50 [4] [µM],IC50 [5] [µM],IC50 [6] [µM],IC50 [7] [µM],Ratio IC50 [8]
COc1ccc(NC2=NC[C@]3(S2)c2ccccc2N(C(=O)OC(C)(C)C)[C@@H]3OC)cc1 (racemic),25,31.3,31.2,25,38.3,24.7,,
CO[C@H]1N(C(=O)OC(C)(C)C)c2ccccc2[C@@]12CN=C(SC)S2 (racemic),74.3,70.5,70.2,37.3,87,37.9,,
CO[C@@H]1N(C(=O)OC(C)(C)C)c2ccccc2[C@@]12CN=C(SC)S2 (racemic),77.6,96.3,100,43.4,97.7,41.9,,
CO[C@H]1N(C(=O)OC(C)(C)C)c2ccccc2[C@@]12CN=C(Nc1ccccc1)S2 (racemic),31.7,29.2,6.2,10,40.3,12.2,,
CO[C@@H]1N(C(=O)OC(C)(C)C)c2ccccc2[C@@]12CN=C(Nc1ccccc1)S2 (racemic),28,34,32,19,34,22,,
CO[C@H]1N(C(=O)OC(C)(C)C)c2ccccc2[C@@]12CN=C(Nc1ccc(Br)cc1)S2 (racemic),28,33,29.5,8,31.5,5,,
CO[C@@H]1N(C(=O)OC(C)(C)C)c2ccccc2[C@@]12CN=C(Nc1ccc(Br)cc1)S2 (racemic),65.5,76,78,30,> 100,50,,
CO[C@H]1N(C(=O)OC(C)(C)C)c2ccccc2[C@@]12CN=C(Nc1ccc(F)cc1)S2 (racemic),29,30,30,19,30,27,,
CO[C@@H]1N(C(=O)OC(C)(C)C)c2ccccc2[C@@]12CN=C(Nc1ccc(F)cc1)S2 (racemic),27.5,34,30.5,15,32.5,14.5,,
CO[C@H]1N(C(=O)OC(C)(C)C)c2ccccc2[C@@]12CN=C(Nc1ccc(Cl)cc1)S2 (racemic),20.8,26,36.5,23.5,42,26.5,,
CO[C@@H]1N(C(=O)OC(C)(C)C)c2ccccc2[C@@]12CN=C(Nc1ccc(Cl)cc1)S2 (racemic),10,16.5,16,7,20.5,19,,
COn1cc(CNC(=S)SC)c2ccccc21 [1-METHOXYBRASSININ],> 100,> 100,> 100,37.5,> 100,63.5,,
CSC(=S)NCc1c[nH]c2ccccc12 [BRASSININ],> 100,> 100,> 100,> 100,> 100,90.2,,
COc1ccc(/C=C\c2cc(OC)c(OC)c(OC)c2)cc1O [COMBRETASTATIN A4],,,,,,,0.005,2
COc1cccc2c1C(=O)c1c(O)c3c(c(O)c1C2=O)C[C@@](O)(C(=O)CO)C[C@@H]3O[C@H]1C[C@H](N)[C@H](O)[C@H](C)O1 [DOXORUBICIN],,,,,,,0.0807,
